# Laboratory results taken from ChEMBL document CHEMBL1129352, “Synthesis and biological evaluation of new imidazole, pyrimidine, and purine derivatives and analogs as inhibitors of xanthine oxidase” (J Med Chem, 1996).
# Molecular target: T1, Xanthine dehydrogenase/oxidase (Homo sapiens, UniProt P47989)
# Experiment: Inhibitory activity against Xanthine Oxidase; call rule not given here
# T1 sequence (P47989 whole entry): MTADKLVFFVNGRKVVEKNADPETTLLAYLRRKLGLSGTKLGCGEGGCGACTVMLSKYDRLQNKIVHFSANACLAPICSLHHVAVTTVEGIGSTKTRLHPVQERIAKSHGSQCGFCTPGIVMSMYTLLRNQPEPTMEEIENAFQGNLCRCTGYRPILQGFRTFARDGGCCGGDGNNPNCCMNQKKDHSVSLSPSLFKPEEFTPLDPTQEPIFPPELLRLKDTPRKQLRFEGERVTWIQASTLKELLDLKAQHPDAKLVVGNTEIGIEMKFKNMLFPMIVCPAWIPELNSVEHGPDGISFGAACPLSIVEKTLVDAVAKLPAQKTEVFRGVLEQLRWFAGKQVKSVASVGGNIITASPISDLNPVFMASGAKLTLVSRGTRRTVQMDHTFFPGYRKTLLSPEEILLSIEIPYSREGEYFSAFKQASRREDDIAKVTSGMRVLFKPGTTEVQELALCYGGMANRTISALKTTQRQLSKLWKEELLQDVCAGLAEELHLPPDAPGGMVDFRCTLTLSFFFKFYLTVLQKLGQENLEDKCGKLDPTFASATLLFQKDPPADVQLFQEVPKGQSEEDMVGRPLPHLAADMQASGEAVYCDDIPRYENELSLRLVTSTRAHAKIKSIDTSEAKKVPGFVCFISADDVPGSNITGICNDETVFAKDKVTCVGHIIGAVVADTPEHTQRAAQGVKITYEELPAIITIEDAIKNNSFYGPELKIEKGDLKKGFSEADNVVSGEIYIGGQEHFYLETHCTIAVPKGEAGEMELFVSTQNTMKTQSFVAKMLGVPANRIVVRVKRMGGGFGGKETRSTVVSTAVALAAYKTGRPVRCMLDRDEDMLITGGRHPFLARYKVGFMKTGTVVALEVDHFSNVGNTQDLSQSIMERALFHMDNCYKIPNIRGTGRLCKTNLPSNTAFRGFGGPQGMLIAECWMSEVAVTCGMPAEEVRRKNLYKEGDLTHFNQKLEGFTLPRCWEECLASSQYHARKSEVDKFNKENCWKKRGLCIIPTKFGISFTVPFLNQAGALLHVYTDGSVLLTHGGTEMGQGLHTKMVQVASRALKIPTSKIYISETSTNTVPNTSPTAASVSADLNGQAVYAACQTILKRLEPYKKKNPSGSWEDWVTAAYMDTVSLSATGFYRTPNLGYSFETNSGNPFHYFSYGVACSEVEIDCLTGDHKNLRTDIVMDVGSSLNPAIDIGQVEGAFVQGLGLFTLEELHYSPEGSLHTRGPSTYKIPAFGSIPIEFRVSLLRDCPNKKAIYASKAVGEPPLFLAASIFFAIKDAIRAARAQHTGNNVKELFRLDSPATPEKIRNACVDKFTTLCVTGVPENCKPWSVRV
SMILES,IC50 [µM],Ki [µM]
CCCCNc1nc(O)c2[nH]cnc2n1,25.5,17.7
O=c1[nH]c2nc(SCc3ccccc3)[nH]c(=O)c2[nH]1,,4.49
O=c1[nH]c2nc(S(=O)(=O)Cc3ccccc3)[nH]c(=O)c2[nH]1,,77.8
CC1CSc2nc3nc(O)nc-3c(O)n2C1 (stereo not drawn),,> 100
Oc1nc2nnnc-2c2n1CCCS2,,> 100
CCCCCCNc1nc(O)c2[nH]cnc2n1,30.5,32.1
CCCCCCSc1nc(O)c2[nH]c(O)nc2n1,,0.16
CCCCCCSc1nc2nc(-c3ccccc3)[nH]c2c(=O)[nH]1,,0.48
CSc1nc2nc(-c3ccccc3)[nH]c2c(=O)[nH]1,,5.7
CCCCCSc1nc(N)c(NC=O)c(=O)[nH]1,> 100,
CCCCCNc1nc2nc[nH]c2c(=O)[nH]1,28.3,25.7
CCCCSc1nc2nc[nH]c2c(=O)[nH]1,3.88,0.176
Oc1c2nc(S)nc-2nc2n1CCCS2,,131

# Now from value to compound:
IC50 [µM],Ki [µM],SMILES
,1.26,Oc1nc2nc(O)n3c(c-2n1)SCC3
> 100,,CCCCSc1nc(N)c(NC=O)c(=O)[nH]1
,40.3,Oc1nc2nc3n(c(O)c-2n1)CCS3
,2.07,O=c1[nH]c(=S)[nH]c2nc(-c3ccccc3)[nH]c12
> 100,,CCCc1nc2n[nH]cc2c(=O)[nH]1
,24.4,Oc1c2nc(S)nc-2nc2n1CCS2
> 100,,CCCCCc1nc2n[nH]cc2c(=O)[nH]1
,93,Oc1nc2nc(-c3ccccc3)nc-2c2n1CCCS2
,66.8,Oc1nc2nc3n(c(O)c-2n1)CCCS3
1.92,1.04,CCCCCOC(=O)C(=O)Nc1[nH]cnc1C(N)=O
> 100,,CCc1nc(O)c2c[nH]nc2n1
4.29,1.06,CCCCOC(=O)C(=O)Nc1nc[nH]c1C(N)=O
> 100,,CCCCc1nc(O)c2c[nH]nc2n1
> 100,,CCCC(=O)Nc1nc2nc[nH]c2c(=O)[nH]1
,> 100,CC1CSc2nc3nc(S)nc-3c(O)n2C1 (stereo not drawn)
,1.86,O=c1nc2[nH]c(=S)[nH]c2c2n1CCS2
1.11,0.26,CCCCCCOC(=O)C(=O)Nc1nc[nH]c1C(N)=O
> 100,,CCCCCCSc1nc(N)c(NC=O)c(=O)[nH]1
12.6,2.56,CCCCCC(=O)Nc1nc[nH]c1C(N)=O
,0.33,Oc1nc2nc(O)n3c(c-2n1)SCCC3

# Molecular target: T1, Xanthine dehydrogenase/oxidase
# Experiment: Inhibitory activity against Xanthine Oxidase; Inactive
SMILES,IC50,Ki
CCCCCC(=O)Nc1nc(O)c2[nH]cnc2n1,Not Active,
O=S1(=O)CCCn2c1nc1nc(O)nc-1c2O,,Not Active

# Second part, the compound after the results:
IC50,Ki,SMILES
Not Active,,CCCCCCSc1nc(N)cc(O)n1
Not Active,,CCCCCSc1nc(N)cc(O)n1
Not Active,,CCCCSc1nc(N)cc(O)n1
Not Active,,CCCCC(=O)Nc1nc(O)c2[nH]cnc2n1

# Molecular target: Xanthine dehydrogenase/oxidase (Bos taurus) (UniProt P80457)
# Experiment: Inhibitory activity against Xanthine Oxidase
# Xanthine dehydrogenase/oxidase (Bos taurus), sequence (P80457 whole entry, looked up): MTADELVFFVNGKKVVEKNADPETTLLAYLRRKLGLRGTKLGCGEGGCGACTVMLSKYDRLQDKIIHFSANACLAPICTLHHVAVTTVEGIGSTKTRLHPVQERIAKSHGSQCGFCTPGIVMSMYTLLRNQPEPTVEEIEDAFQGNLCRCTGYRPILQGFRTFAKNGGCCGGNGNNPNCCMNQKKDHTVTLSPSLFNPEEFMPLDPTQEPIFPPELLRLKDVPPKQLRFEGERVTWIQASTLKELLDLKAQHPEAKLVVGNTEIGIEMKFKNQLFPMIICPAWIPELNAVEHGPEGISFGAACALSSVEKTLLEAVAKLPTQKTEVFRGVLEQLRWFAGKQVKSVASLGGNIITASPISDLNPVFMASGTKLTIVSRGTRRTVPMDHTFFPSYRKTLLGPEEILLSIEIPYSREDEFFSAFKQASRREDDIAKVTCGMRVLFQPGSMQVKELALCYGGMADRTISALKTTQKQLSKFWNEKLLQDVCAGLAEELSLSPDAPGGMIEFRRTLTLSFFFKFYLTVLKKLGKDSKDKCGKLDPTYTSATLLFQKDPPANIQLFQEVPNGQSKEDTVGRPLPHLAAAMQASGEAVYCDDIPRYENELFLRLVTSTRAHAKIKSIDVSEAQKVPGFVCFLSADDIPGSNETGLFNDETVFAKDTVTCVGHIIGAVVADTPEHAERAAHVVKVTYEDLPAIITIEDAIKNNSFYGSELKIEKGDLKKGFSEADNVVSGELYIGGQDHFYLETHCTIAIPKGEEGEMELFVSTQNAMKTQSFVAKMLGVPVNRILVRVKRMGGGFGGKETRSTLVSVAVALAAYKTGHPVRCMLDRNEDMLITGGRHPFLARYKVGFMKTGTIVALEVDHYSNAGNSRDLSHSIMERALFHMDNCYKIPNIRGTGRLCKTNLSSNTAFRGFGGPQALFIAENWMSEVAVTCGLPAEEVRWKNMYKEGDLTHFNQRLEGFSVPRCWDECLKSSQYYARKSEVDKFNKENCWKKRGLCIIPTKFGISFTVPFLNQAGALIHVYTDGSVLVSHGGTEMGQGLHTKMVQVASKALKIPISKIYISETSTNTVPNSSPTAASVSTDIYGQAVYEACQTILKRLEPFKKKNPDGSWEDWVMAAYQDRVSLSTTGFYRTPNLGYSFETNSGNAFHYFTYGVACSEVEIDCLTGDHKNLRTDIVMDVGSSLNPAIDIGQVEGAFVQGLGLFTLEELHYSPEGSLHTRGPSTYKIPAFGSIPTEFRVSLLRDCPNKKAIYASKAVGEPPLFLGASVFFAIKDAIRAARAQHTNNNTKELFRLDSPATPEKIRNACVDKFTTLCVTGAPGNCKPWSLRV
row,Ki [µM],SMILES
1,0.89,Oc1nc2nc(S)nc-2c2n1CCCS2
